Measurements: patent publication US20140378374A1, “METHODS OF TREATMENT” (GlaxoSmithKline Intellectual Property (No.2) Limited, priority 2013, published 2014)
Read-outs that look alike come from different tables or passages of the source. One block for each compound: values may come before it.

Key:
[1] = each group with CKD (mild, moderate, severe); cited from earlier work
[2] = system: patients with type 2 diabetes; conditions: head-to-head trial; cited from earlier work
patients with T2D and RI = format: in vivo, human; conditions: for Model-adjusted change from baseline A1C, LS mean (SE): ANCOVA
Procedure: Therapies for type 2 diabetes mellitus (T2DM) with renal impairment (RI) are limited and may require dose adjustment. This 52-week randomized, double blind, active controlled, Phase III parallel group study examined efficacy/safety of QW Albi injections (30 mg uptitrated to 50 mg if needed) vs daily Sita in patients with T2D and RI (eGFR≧15 and <90 mL/min/1.73 m^2) and A1C 7-10% on lifestyle (11% of subjects) or metformin (Met), thiazoldinedone (TZD), sulfonylureas (SU), or any combination (89% of patients). […] Primary endpoint was A1C change at week 26 for Albi vs Sita (noninferiority with subsequent superiority analysis). Eligible subjects were men or non pregnant, nonlactating women, 18 years of age or older, with a historical diagnosis of T2DM who were experiencing inadequate glycemic control on their current regimen of diet and exercise or their antidiabetic therapy of metformin, TZD, SU, or any combination of these OAD medications.

[3] = Week 26, Moderate RI (eGFR 30-59)
[4] = Week 26, Severe RI (eGFR 15-29)

SMILES: CCCCCCCCCCCCCCCC(=O)N[C@@H](CCC(=O)NCCCC[C@H](NC(=O)[C@H](C)NC(=O)[C@H](C)NC(=O)[C@H](CCC(N)=O)NC(=O)CNC(=O)[C@H](CCC(=O)O)NC(=O)[C@H](CC(C)C)NC(=O)[C@H](Cc1ccc(O)cc1)NC(=O)[C@H](CO)NC(=O)[C@H](CO)NC(=O)[C@@H](NC(=O)[C@H](CC(=O)O)NC(=O)[C@H](CO)NC(=O)[C@@H](NC(=O)[C@H](Cc1ccccc1)NC(=O)[C@@H](NC(=O)CNC(=O)[C@H](CCC(=O)O)NC(=O)[C@H](C)NC(=O)[C@@H](N)Cc1cnc[nH]1)[C@@H](C)O)[C@@H](C)O)C(C)C)C(=O)N[C@@H](CCC(=O)O)C(=O)N[C@@H](Cc1ccccc1)C(=O)N[C@H](C(=O)N[C@@H](C)C(=O)N[C@@H](Cc1c[nH]c2ccccc12)C(=O)N[C@@H](CC(C)C)C(=O)N[C@H](C(=O)N[C@@H](CCCNC(=N)N)C(=O)NCC(=O)N[C@@H](CCCNC(=N)N)C(=O)NCC(=O)O)C(C)C)[C@@H](C)CC)C(=O)O [liraglutide, reference compound]
- exposure vs group with normal renal function [1]: reduced exposure
- nausea, percentage [2]: 29%
- vomiting, percentage [2]: 9%

- Hypoglycemia rate (patients with T2D and RI; both, human, in vivo, 26 weeks): 13.4%
- Hypoglycemia, severe (number) (patients with T2D and RI; both, human, in vivo, 26 weeks): 2
- Injection site reaction rate (patients with T2D and RI; both, human, in vivo, 26 weeks): 2.8%
SMILES: N[C@@H](CC(=O)N1CCn2c(nnc2C(F)(F)F)C1)Cc1cc(F)c(F)cc1F [Sitagliptin, sitagliptin, reference compound]
- Week 26 A1C, mean (patients with T2D and RI; Any RI (eGFR 15-89)): 7.68%
- Week 26 A1C, mean (patients with T2D and RI; Mild RI (eGFR 60-89 mL/min/1.73 m2)): 7.50%
- Week 26 A1C, mean (patients with T2D and RI; Moderate RI (eGFR 30-59)): 7.91%
- Week 26 A1C, mean (patients with T2D and RI; Severe RI (eGFR 15-29)): 7.67%
- A1C<7% achieved, patients (patients with T2D and RI; Week 26): 30.5%
- FPG change (patients with T2D and RI; Week 26): -3.9 mg/dL
- weight change (patients with T2D and RI; Week 26): -0.2 kg
- Model-adjusted change from baseline A1C, LS mean (SE) (patients with T2D and RI; Week 26, Any RI (eGFR 15-89)): −0.52%
- Model-adjusted change from baseline A1C, LS mean (SE) (patients with T2D and RI; Week 26, Mild RI (eGFR 60-89)): −0.67%
- Model-adjusted change from baseline A1C, LS mean (SE) (patients with T2D and RI; [3]): −0.31%
- Model-adjusted change from baseline A1C, LS mean (SE) (patients with T2D and RI; [4]): −0.61%
- Change from baseline A1C, mean (SD) (patients with T2D and RI; Week 26, Any RI (eGFR 15-89)): −0.54%
- Change from baseline A1C, mean (SD) (patients with T2D and RI; Week 26, Mild RI (eGFR 60-89)): −0.66%
- Change from baseline A1C, mean (SD) (patients with T2D and RI; [3]): −0.37%
- Change from baseline A1C, mean (SD) (patients with T2D and RI; [4]): −0.65%
- Adverse Event rate: diarrhea (patients with T2D and RI; both, human, in vivo, 26 weeks): 6.1%
- Adverse Event rate: nausea (patients with T2D and RI; both, human, in vivo, 26 weeks): 2.8%
- Adverse Event rate: vomiting (patients with T2D and RI; both, human, in vivo, 26 weeks): 0.8%
- On-therapy adverse event: Constipation (patients with T2D and RI; both, human, in vivo, 26 weeks): 5 (2.0) n (%)
- On-therapy adverse event: Diarrhea (patients with T2D and RI; both, human, in vivo, 26 weeks): 15 (6.1) n (%)
- On-therapy adverse event: Hypertension (patients with T2D and RI; both, human, in vivo, 26 weeks): 15 (6.1) n (%)
- On-therapy adverse event: Nasopharyngitis (patients with T2D and RI; both, human, in vivo, 26 weeks): 16 (6.5) n (%)
- On-therapy adverse event: Upper respiratory tract infection (patients with T2D and RI; both, human, in vivo, 26 weeks): 16 (6.5) n (%)
- On-therapy adverse event: Urinary tract infection (patients with T2D and RI; both, human, in vivo, 26 weeks): 15 (6.1) n (%)
